Experimental data reported in patent US20240216355A1, “PHARMACEUTICAL COMPOSITIONS FOR USE IN THE PREVENTION AND TREATMENT OF A DISEASE OR DISORDER CAUSED BY OR ASSOCIATED WITH ONE OR MORE PREMATURE TERMINATION CODONS” (Monte Rosa Therapeutics, Inc., priority 2021, published 2024).

Molecular target: T1, GSPT1 (Homo sapiens, UniProt P15170+Q96SW2)
T1 construct: CAL-51 cells were purchased from DSMZ (cat. Number ACC302); host or cells: CAL-51 cells
Experiment: GSPT1 degradation immunofluorescence assay in CAL-51 cells
Assay type: cell-based
Conditions: 6 hours treatment, compounds 201 to 307, read-out: Activity for GSPT1 degradation (DC50 code)
Protocol: CAL-51 cells were purchased from DSMZ (cat. Number ACC302), sub-cultured in 90% Dulbecco's MEM (4.5 g/L glucose, Gibco 11965)+10% heat inactivated FBS (BioConcept, 2-01F1361) and incubated at 37° C., 5% CO2. For the assay, imaging microtiterplate Cell Carrier 96 Ultra (Perkin Elmer 6055302) were pre-coated with Fibronectin (Sigma F085, 30 μl at 0.2 μg/ml) in PBS (100p, Gibco 14190) for 45 min at room temperature, rinsed with PBS and CAL-51 cells (30K cells/well) were plated and let to adhere overnight. Cells were treated with compounds typically using a serial dilution ranging from 30 μM to 0.1 nM for 6 hours. Compounds were stored at 10 mM DMSO stocks. Vehicle (DMSO), positive (CC-885, 10 μM) and rescue controls (positive control plus 0.2 μM bortezomib) were also included at this stage. Cells were subsequently rinsed with PBS and fixed in 10% Formalin solution (50p, Sigma HT5011)) for 20 mins at room temperature. Following three consecutive PBS washes (100 μl), cells were permeabilized in 0.1% Triton X-100 in PBS (Sigma 93443, 50 μl) for 15 mins at room temperature. Following three further PBS washes, 50 μl blocking buffer (1% BSA, Sigma A4503, in PBS) was added for 45 min for signal-to-noise reduction. Primary antibody (human GSPT1, Sigma HPA052488) was diluted in blocking buffer (dil.1/300, 35 μl/well) and incubated with the cells overnight at 4° C. After three PBS washes, Alexa-fluor 488 coupled secondary antibodies (Invitrogen, A32731, dil. 1/1000), Alexa-fluor 647-Phalloïdin (Invitrogen, A22287, dil. 1/200) and DAPI (Thermo, #62248, dil.1/1000) were diluted in blocking buffer and incubated with the samples for 2 hours at room temperature. After three final PBS washes, samples were conserved in 100 μl PBS in the dark, until measurement. Image acquisition was performed on the Operetta High-Content Imager (Perkin-Elmer). Fluorescence intensity of Alexa-Fluor 488 (GSPT1), Alexa-Fluor 647 (Actin) and DAPI (Nucleus) were measured. For the determination of GSPT1 DC50 values, a custom algorithm implemented in the PerkinElmer image analysis software Harmony-Acapella@ was developed. After user-defined setting of adjustment parameters, the analysis was run identically without human intervention for all image fields. DAPI staining of the nuclei was used to determine the location of cells using standard nuclei detection modules. Segmentation artifacts were removed by threshold-based filters for area, roundness and intensity. The outline of the cells was determined analogously from the sum of the normalized, smoothed DAPI and Actin channel, starting from each nucleus.
The Alexa-Fluor 488 (GSPT1) signal intensity in each cell was finally measured, in order to obtain a Mean intensity per cell. GSPT1 degradation (DC50) was calculated after normalization to controls and data import in CDD vault Database, using non-linear regression.

T1 sequence (P15170 whole entry): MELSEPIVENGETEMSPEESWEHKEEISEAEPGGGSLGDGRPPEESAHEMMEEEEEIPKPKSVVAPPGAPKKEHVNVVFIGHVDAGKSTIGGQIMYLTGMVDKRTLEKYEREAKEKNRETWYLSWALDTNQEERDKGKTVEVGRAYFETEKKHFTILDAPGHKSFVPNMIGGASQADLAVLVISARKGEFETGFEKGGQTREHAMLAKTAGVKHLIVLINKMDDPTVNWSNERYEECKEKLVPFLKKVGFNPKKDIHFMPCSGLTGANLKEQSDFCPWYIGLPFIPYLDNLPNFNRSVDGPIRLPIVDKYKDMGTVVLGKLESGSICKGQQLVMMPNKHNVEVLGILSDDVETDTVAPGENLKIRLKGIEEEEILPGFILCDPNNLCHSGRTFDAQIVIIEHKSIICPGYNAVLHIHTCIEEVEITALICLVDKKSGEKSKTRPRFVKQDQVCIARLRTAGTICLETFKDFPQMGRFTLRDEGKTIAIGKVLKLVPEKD
T1 sequence (Q96SW2 whole entry): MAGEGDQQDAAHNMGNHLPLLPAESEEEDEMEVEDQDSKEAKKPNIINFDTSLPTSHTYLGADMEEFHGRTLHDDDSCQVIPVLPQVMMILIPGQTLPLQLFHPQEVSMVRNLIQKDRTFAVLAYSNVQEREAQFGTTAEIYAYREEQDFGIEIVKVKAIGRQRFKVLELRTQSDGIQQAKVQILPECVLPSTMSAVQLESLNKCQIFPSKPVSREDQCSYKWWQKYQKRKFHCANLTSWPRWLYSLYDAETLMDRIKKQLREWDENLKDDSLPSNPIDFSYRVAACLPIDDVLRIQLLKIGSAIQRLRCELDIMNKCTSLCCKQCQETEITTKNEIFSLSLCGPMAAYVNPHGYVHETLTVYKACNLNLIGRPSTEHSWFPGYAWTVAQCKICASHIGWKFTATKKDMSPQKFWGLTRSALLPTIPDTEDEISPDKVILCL
T1 sequence (Q16531 whole entry partner): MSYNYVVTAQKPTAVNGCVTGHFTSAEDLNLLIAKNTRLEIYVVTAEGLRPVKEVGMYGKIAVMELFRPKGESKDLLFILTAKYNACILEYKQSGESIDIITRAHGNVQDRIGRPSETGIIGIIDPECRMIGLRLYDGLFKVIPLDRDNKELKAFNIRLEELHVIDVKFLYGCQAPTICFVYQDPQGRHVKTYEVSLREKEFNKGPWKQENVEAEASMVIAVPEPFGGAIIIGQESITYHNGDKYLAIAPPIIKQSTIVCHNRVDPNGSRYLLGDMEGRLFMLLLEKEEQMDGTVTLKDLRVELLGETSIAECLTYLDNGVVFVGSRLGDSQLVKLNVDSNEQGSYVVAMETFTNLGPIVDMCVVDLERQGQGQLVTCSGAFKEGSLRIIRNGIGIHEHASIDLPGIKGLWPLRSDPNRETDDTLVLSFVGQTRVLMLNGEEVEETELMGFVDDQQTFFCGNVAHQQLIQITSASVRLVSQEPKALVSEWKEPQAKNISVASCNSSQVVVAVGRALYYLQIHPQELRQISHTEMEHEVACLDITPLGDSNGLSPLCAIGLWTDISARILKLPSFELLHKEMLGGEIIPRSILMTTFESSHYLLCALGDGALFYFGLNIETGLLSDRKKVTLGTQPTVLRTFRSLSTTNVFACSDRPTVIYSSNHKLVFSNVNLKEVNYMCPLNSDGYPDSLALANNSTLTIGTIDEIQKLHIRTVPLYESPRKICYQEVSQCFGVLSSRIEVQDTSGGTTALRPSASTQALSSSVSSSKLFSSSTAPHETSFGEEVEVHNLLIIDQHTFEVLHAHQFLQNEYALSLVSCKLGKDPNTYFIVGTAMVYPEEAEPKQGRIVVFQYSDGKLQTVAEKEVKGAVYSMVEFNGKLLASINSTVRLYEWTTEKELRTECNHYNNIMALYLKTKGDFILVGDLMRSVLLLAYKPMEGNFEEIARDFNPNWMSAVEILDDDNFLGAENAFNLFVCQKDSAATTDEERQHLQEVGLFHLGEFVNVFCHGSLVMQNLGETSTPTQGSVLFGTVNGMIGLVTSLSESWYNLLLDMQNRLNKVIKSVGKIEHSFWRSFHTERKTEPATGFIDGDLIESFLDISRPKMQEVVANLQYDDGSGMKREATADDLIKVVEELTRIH

Row | SMILES | DC50 [µM]
1 | COc1cc(C)c(Cl)cc1NC(=O)OCc1ccc2c(c1)C(=O)N(C1CCC(=O)NC1=O)C2 (centres unmarked) [Compound 201] | < 0.03
2 | O=C1CCC(N2Cc3ccc(COC(=O)Nc4cccc(OC(F)F)c4)cc3C2=O)C(=O)N1 (centres unmarked) [Compound 205] | < 0.03
3 | Cc1ccc(NC(=O)OCc2ccc3c(c2)C(=O)N(C2CCC(=O)NC2=O)C3)cc1Cl (centres unmarked) [Compound 210] | < 0.03
4 | O=C1CCC(N2Cc3ccc(COC(=O)Nc4cc(Cl)cc(OC(F)(F)F)c4)cc3C2=O)C(=O)N1 (centres unmarked) [Compound 211] | < 0.03
5 | Cc1c(Cl)cc(NC(=O)OCc2ccc3c(c2)C(=O)N(C2CCC(=O)NC2=O)C3)cc1CN1CC2CCC(C1)O2 (centres unmarked) [Compound 221] | < 0.03
6 | Cc1c(CN2CCOCC2)cc(NC(=O)OCc2ccc3c(c2)C(=O)N(C2CCC(=O)NC2=O)C3)cc1OC(F)(F)F (centres unmarked) [Compound 234] | < 0.03
7 | O=C1CCC(N2Cc3ccc(COC(=O)Nc4ccc(-c5ccccc5)nc4)cc3C2=O)C(=O)N1 (centres unmarked) [Compound 242] | < 0.03
8 | CC(C)(C)c1ccc(NC(=O)OCc2ccc3c(c2)C(=O)N(C2CCC(=O)NC2=O)C3)cn1 (centres unmarked) [Compound 243] | < 0.03
9 | CN1CCC(Oc2cc(Cl)cc(NC(=O)OCc3ccc4c(c3)C(=O)N(C3CCC(=O)NC3=O)C4)c2)C1 (centres unmarked) [Compound 246] | < 0.03
10 | CC(C)(C)c1ccc(NC(=O)OCc2ccc3c(c2)C(=O)N(C2CCC(=O)NC2=O)C3)cc1 (centres unmarked) [Compound 247] | < 0.03
11 | Cc1c(Cl)cc(NC(=O)OCc2ccc3c(c2)C(=O)N(C2CCC(=O)NC2=O)C3)cc1OCCN1CCOCC1 (centres unmarked) [Compound 248] | < 0.03
12 | CCc1ncc(NC(=O)OCc2ccc3c(c2)C(=O)N(C2CCC(=O)NC2=O)C3)cc1C (centres unmarked) [Compound 249] | < 0.03
13 | O=C1CCC(N2Cc3ccc(COC(=O)Nc4ccc(-c5ccccn5)cc4)cc3C2=O)C(=O)N1 (centres unmarked) [Compound 250] | < 0.03
14 | O=C1CCC(N2Cc3ccc(COC(=O)Nc4cc(F)cc(OC(F)(F)F)c4)cc3C2=O)C(=O)N1 (centres unmarked) [Compound 257] | < 0.03
15 | O=C1CCC(N2Cc3ccc(COC(=O)Nc4ccc(F)c(OC(F)(F)F)c4)cc3C2=O)C(=O)N1 (centres unmarked) [Compound 261] | < 0.03
16 | CC1CCN(c2ccc(NC(=O)OCc3ccc4c(c3)C(=O)N(C3CCC(=O)NC3=O)C4)cn2)C1 (centres unmarked) [Compound 269] | < 0.03
17 | CC1CCCN1c1ccc(NC(=O)OCc2ccc3c(c2)C(=O)N(C2CCC(=O)NC2=O)C3)cn1 (centres unmarked) [Compound 274] | < 0.03
18 | O=C1CCC(N2Cc3ccc(COC(=O)Nc4ccc5c(c4)OC(F)(F)O5)cc3C2=O)C(=O)N1 (centres unmarked) [Compound 279] | < 0.03
19 | O=C1CCC(N2Cc3ccc(COC(=O)Nc4ccc(-c5ccccc5F)nc4)cc3C2=O)C(=O)N1 (centres unmarked) [Compound 284] | < 0.03
20 | O=C1CCC(N2Cc3ccc(COC(=O)Nc4cnc(-c5ccccc5)c(F)c4)cc3C2=O)C(=O)N1 (centres unmarked) [Compound 285] | < 0.03
21 | COc1cc(NC(=O)OCc2ccc3c(c2)C(=O)N(C2CCC(=O)NC2=O)C3)cnc1-c1ccccc1 (centres unmarked) [Compound 290] | < 0.03
22 | O=C1CCC(N2Cc3ccc(COC(=O)Nc4cc(CN5CCOCC5)cc(OC(F)F)c4)cc3C2=O)C(=O)N1 (centres unmarked) [Compound 295] | < 0.03
23 | O=C1CCC(N2Cc3ccc(COC(=O)Nc4cc(OCCN5CCOCC5)cc(OC(F)F)c4)cc3C2=O)C(=O)N1 (centres unmarked) [Compound 296] | < 0.03
